System: ciliary transport of pig airway mucus secretions on the ex vivo pig trachea
Assay: Ciliary transport of mucus secretions (tracheal mucus velocity) on ex vivo normal pig trachea
Details: for time of maximum transport speed following initiation of treatment / first time point with increased ciliary transport compared to BSS controls: 0.1 mM UTP; for first time point where increased ciliary transport is observed (class summary): Classes 2 and 3, after application of the treatment; for first time point with increased ciliary transport compared to BSS controls: applied 10 min in BSS: 10^−4 M amiloride, +50 mM-NaCl, 100 mosM-mannitol, 100 mosM-sodium gluconate, combinations with 10^−5M Rx; for onset and duration profile of increased ciliary transport of secretions: normal pig trachea, single 10 min treatment; for class of ciliary transport enhancer: three classes of ENaC regulating substances
Method: The lumen of each trachea was cleaned by gentle irrigation with BSS. Tracheas were opened longitudinally with scissors along the posterior aspect and mounted with the posterior aspect upwards in a moist air-tight box. An aliquot of pig airway mucus approximately 3 mm diameter was placed on the mucosal surface close to the distal end of each trachea. Tracheal mucus velocity (TMV mm/min) was measured by recording the distance moved, towards the laryngeal end of the trachea, in a given time. At the start of the study three measurements of TMV were made for each trachea to establish a baseline rate for the trachea. Solutions were then pipetted onto the luminal mucosal surface of tracheas for 10 min; BSS control tracheas (open circles; n=6); 10^−4 M amiloride in BSS (closed squares; n=6). Excess solution was then tipped off the mucosal surface and measurement of TMV repeated. TMV results at each time point are expressed as % of the baseline TMV, ciliary transport index (mean±SD).
Pig tracheas (from larynx to carina) from normal wild type animals were obtained from a local abattoir or Veterinary University. Transgenic CF piglets were produced as described by Klymiuk et al. 2012, and tracheas were obtained at a Veterinary University. The lumen of each trachea was cleaned by gentle irrigation with BSS. Tracheas were opened longitudinally with scissors along the posterior aspect and mounted with the posterior aspect upwards in a moist air-tight box. An aliquot of pig airway mucus approximately 3 mm diameter was placed on the mucosal surface close to the distal end of each trachea. Tracheal mucus velocity (TMV mm/min) was measured by recording the distance moved, towards the laryngeal end of the trachea, in a given time. At the start of a study three measurements of TMV were made for each trachea to establish a baseline rate for the trachea. Solutions were then pipetted onto the luminal mucosal surface of tracheas for 10 min. Then excess solution was tipped off the mucosal surface and measurement of TMV repeated. TMV results at each time point are expressed as % of the baseline TMV, ciliary transport index (mean±SD).

SMILES | time of maximum transport speed following initiation of treatment (10^−4 M amiloride) [min] | first time point where increased ciliary transport is observed (class summary) [min] | first time point with increased ciliary transport compared to BSS controls [min] | onset and duration profile of increased ciliary transport of secretions | class of ciliary transport enhancer | ciliary transport speed at the first two time points (25 and 40 min) compared to BSS controls (10^−5M in BSS) | ciliary transport at 24 h following exposure to the treatment (class summary) (Class 3) | dose of maximum increase in ciliary transport (at 3 h 40 min, tested 10^−9 M to 10^−5 M) | difference from BSS control tracheas at 40 min, 55 min and 1 h 10 min (10^−4 M amiloride) | duration of stimulation of ciliary transport (10^−4 M amiloride) | time by which transport speed returned to control levels (10^−4 M amiloride) [min] | stimulated ciliary transport through to (last time point) (10^−4 M amiloride in BSS applied 10 min) [min] | onset of increased ciliary transport of secretions (class summary) (Class 1) | return to control transport rate (class summary) (Class 1) [min] | peak increase in the rate of ciliary transport (class summary) (Classes 1 to 3 of ciliary transport enhancers) [%]
O=c1ccn([C@@H]2O[C@H](COP(=O)(O)OP(=O)(O)OP(=O)(O)O)[C@@H](O)[C@H]2O)c(=O)[nH]1 [UTP, uridine 5′-triphosphate] | 55 | 25 | 25 | medium-onset medium duration | Medium onset—medium duration |  |  |  |  |  |  |  |  |  | 
OC[C@@H](O)[C@@H](O)[C@H](O)[C@H](O)CO [hyperosmotic mannitol, mannitol] |  | 25 | 25 | medium-onset medium duration | Medium onset—medium duration |  |  |  |  |  |  |  |  |  | 
O=C([O-])[C@H](O)[C@@H](O)[C@H](O)[C@H](O)CO.[Na+] [hyperosmotic sodium gluconate, sodium gluconate] |  | 25 | 25 | medium-onset medium duration | Medium onset—medium duration |  |  |  |  |  |  |  |  |  | 
N=C(N)Nc1ccc(C(=O)Oc2ccc3cc(C(=N)N)ccc3c2)cc1 [6-amidino-2-napthyl 4-guanidinobenzoate] |  | 55 |  | slow-onset long duration | Slow onset—long duration | no increase in speed | continues to exceed control transport rate | 10^−6 M |  |  |  |  |  |  | 
N=C(N)NC(=O)c1nc(Cl)c(N)nc1N [amiloride] | 25 |  | 10 | rapid onset and of short duration | Rapid onset—short duration |  |  |  | no significant difference | less than 1 h | ≤ 40 | 35 | immediate | ≤ 40 | 30
